Reference: patent US20090203646A1, “USE OF SODIUM NARCISTATIN FOR REDUCING INTERNAL ADHESIONS AND FIBROSIS” (Sun Health Research Institute, priority 2008, published 2009)
Entries after “also recorded” stand apart in the source; their conditions may differ.

Experiments:
arthritic rats = experiment: Tolerability of the drug in arthritic rats; type: in vivo, Lewis rats
Description: While there is variability in the severity of disease development between the batches of adjuvant, there is very little within batch variability. All animals in each experiment were challenged with the same preparation of adjuvant. All animals in this experiment that received CFA developed arthritis from this adjuvant preparation. The arthritis disease pathology that developed in both experiments was the same in onset and severity.

[1] = system: splenic adhesions in the peritoneal cavity of rats with inflammatory arthritis; experiment: Adhesion formation in rats with CFA-induced inflammatory arthritis (gross observation and adhesion scoring)
[2] = system: Spleen cells treated with the T-cell dependent mitogen, Con A; experiment: Cytokine production by spleen cells treated with Con A (ELISA); type: cell-based, Lewis rats
Method: (§1) Immune Cell Cytokine Profile Assessment: A second experiment was completed to determined whether the adhesion reducing action of sodium narcistatin could be due to altering immune cell pro-inflammatory cytokine profiles known to […] adhesion formation. Spleen cells were cultured from young adult Lewis rats and treated in vitro with either Con A or LPS, T or B cell mitogen, respectively. Cultures with and without Con A or LPS were then treated with sodium narcistatin (0, 1, or 10 μg/ml). Cultures were incubated for 24 h at 37° C. After 24 h, supernatants were collected and cytokines were assessed using cytokine specific ELISA assays.
Cell Culture: Spleens were aseptically removed into Hank's balanced salt solution (HBSS). The spleens were placed in a stomacher bag and homogenized for 30 seconds. Spleen cells were triturated with a 10 ml pipette then washed with an additional 10 ml of HBSS and passed through a nylon mesh (Marsh Industries) to remove the extraneous connective tissue. The collected cells were centrifuged and resuspended in 5 ml of a NH4Cl hypotonic buffer for 3 min to lyse the red blood cells. The cells were washed 2× with 10 ml HBSS, centrifuged and resuspended into complete RPMI 1640 media supplemented with 5% fetal calf serum and 1% antibiotic/antimycotic.
Cultures for Cytokine Analysis: The prepared cells were counted using a hemocytometer, then brought to the concentration of 2×10^6 cells/ml. Two ml of the cell preparation were plated into 24 well plates (Falcon: Oxnard, Calif.), in the absence or presence of mitogen and in placed in an incubator 7% CO2, 37° C., for 24 h. After 24 h the culture supernatants were harvested and placed in the freezer at −70° C. until ELISA assay.
Cytokine Production: Duo sets for the detection of IL-1, IL-2, IL-4, IL-10, IFN-γ and TNF-α were obtained from R & D Systems and sandwich ELISAs were used to measure the amount cytokine released into the culture media. High binding microtiter 96-well plates were pre-coated with 100 μl of capture antibody in coating buffer for IL-1, IL-2, IL-4, IL-10, IFN-γ and TNF-α (0.15 M phosphate buffer, pH 7.4). The plates were sealed with plate film (Denville Scientific: South Plainfield, N.J.) and placed at 4° C. overnight. […]
(§2) After color development the plates were stopped with addition of 1N sulfuric acid. Unknown sample cytokine levels were determined through comparison with a standard curve present on each plate using an ELISA reader (Ceres 900 HDI: Bio Tek Instruments Incorporated: Winooski, Vt.). The concentrations were averaged for each treatment group at each time point, expressed as mean±SEM in ng/ml, and subjected to a one-way ANOVA (p<0.05) with Bonferroni post-hoc testing.

Rat fibroblast cells = experiment: Fibroblast proliferation, tritiated thymidine assay; type: cell-based
Method: Fibroblast Proliferation Assessment: A third experiment was completed to determined whether the adhesion reducing action of sodium narcistatin could be due to direct effects of sodium narcistatin to prevent fibroblast proliferation.
Proliferation of rat fibroblasts were assessed using standard tritiated thymidine assays as follows. Rat fibroblast cells were cultured in the presence of narcistatin in concentrations ranging from 0 to 1 mg/ml. The assay was completed in triplicate. Cells were pulsed at 24 h with 0.5 μCi 3H-Thymidine/well and incubated for 48 h at 37° C. At 48 h plates were pulled from the incubator and cells were harvested using a Brandel Cell Harvester. Filters with collected cells were washed 12× with 200 μl of ice cold distilled water). Fiberglass filers containing cells were placed into scintillation vials with 4 ml of ScintSafe Econo2 scintillation fluid. Radioactivity measured using a scintillation counter

[3] = system: Spleen cells treated with the B-cell dependent mitogen, LPS; experiment: Cytokine production by spleen cells treated with LPS (ELISA); type: cell-based, Lewis rats; settings: 1 or 10 μg/ml, 24 h
Method: as §1
Cell Culture: Spleens were aseptically removed into Hank's balanced salt solution (HBSS). […]
Cultures for Cytokine Analysis: The prepared cells were counted using a hemocytometer, then brought to the concentration of 2×10^6 cells/ml. […]
as §2

tumor growth = settings: cited from earlier work
Japanese encephalitis = settings: flavivvirus infection; cited from earlier work
[4] = system: Encephalitozoan intestinalis; settings: cited from earlier work
[5] = system: intraperitoneal adhesion formation; settings: after surgery; cited from earlier work

For `O=C1N[C@@H]2C(=C[C@H](O)[C@H]3OP(=O)(O)O[C@H]32)c2cc3c(c(O)c21)OCO3` [sodium narcistatin], the tolerability (arthritic rats; arthritic animals, 4.5 mg/Kg) was “tolerate the drug well”, the “body weights, grooming, feeding and drinking behavior” value (arthritic rats; vehicle- versus narcistatin-treated arthritic rats) was “no differences” and the “number of adhesions in the thoracic and abdominal cavities” value ([1]; arthritic animals, compared to untreated or vehicle-treated arthritic animals) was “dramatically reduced”. For the same molecule, the “splenic adhesion development in peritoneal cavity (FIG. 2)” value ([1]; arthritic rats, 4.5 mg/Kg intraperitoneal, day 10 to day 28 post-immunization) was “little to no adhesions”, the “formation of dense fibrous connective tissue covering over the spleen and pancreas (adhesion scoring, FIG. 3)” value ([1]; arthritic rats, 4.5 mg/Kg intraperitoneal, blinded subjective scoring) was “largely prevented” and the “production of IFN-γ” value ([2]; 1 or 10 μg/ml, 24 h) was “reduced”. For the same molecule, the “production of IL-1” value ([2]; 1 or 10 μg/ml, 24 h) was “reduced”, the “production of IL-2” value ([2]; 1 or 10 μg/ml, 24 h) was “reduced” and the “production of Con-A induced IFN-α” value ([2]; summary sentence b104) was “reduced”. For the same molecule, the “inhibition of fibroblast proliferation in vitro (FIG. 6)” value (Rat fibroblast cells; 0 to 1 mg/ml) was “potent inhibitor; also recorded: dose dependent”, the “reduction of fibroblast proliferation” value (Rat fibroblast cells; at 0.001 mg/ml) was 50% and the “fibroblast proliferation reduced to” value (Rat fibroblast cells; at 0.01 mg/ml) was ~0%. For the same molecule, the “production of IL-1 (IL-1β)” value [3] was “reduced” and the “production of TNF-α” value [3] was “reduced”.

In the case of `O=C1N[C@@H]2C(=C[C@H](O)[C@@H](O)[C@H]2O)c2cc3c(c(O)c21)OCO3` [Narciclasine, narciclasine], the anticancer properties (tumor growth) is listed as “anticancer properties”.

For `O=C1N[C@H]2[C@H](O)[C@H](O)[C@@H](O)[C@H](O)[C@@H]2c2cc3c(c(O)c21)OCO3` [Pancratastatin], the survival rate (Japanese encephalitis) is given as “up to 100%”, the “activity against the parasite” value [4] is given as “activity” and the “potency in inhibiting tumor growth” value (tumor growth; relative to sodium narcistatin) is given as “more potent than sodium narcistatin”.

For `O=C(c1ccccc1)c1ccc2n1CCC2C(=O)O` (centres unmarked) [Ketorolac, reference compound], the adhesion formation/reformation [5] is listed as “reduces adhesion formation”.

B1: IL-10: anti-inflammatory cytokine (protein, UniProt P22301 19-178, looked up)
Interleukin-10: SPGQGTQSENSCTHFPGNLPNMLRDLRDAFSRVKTFFQMKDQLDNLLLKESLLEDFKGYLGCQALSEMIQFYLEEVMPQAENQDPDIKAHVNSLGENLKTLRLRLRRCHRFLPCENKSKAVEQVKNAFNKLQEKGIYKAMSEFDIFINYIEAYMTMKIRN
For B1, the adhesion formation/reformation [5] is given as “reduces adhesions; also recorded: limited”.
